# Patent US12509482B2, “3′-ketoglycoside compound for the slow release of a volatile alcohol” (GLYCOSCIENCE, S.L., priority 2020, dated 2025)
# Read-outs that look alike come from different tables or passages of the source.
# Key:
# Assay type in all cases: physicochemical
# [1] = Example 30: competitive release of alcohol from substrate stock solutions A-D (methyl-O-α-D-3′-ketoglucopyranoside, methyl-O-α-D-glucopyranoside, phenyl-O-β-D-3′-ketoglucopyranoside, phenyl-O-β-D-glucopyranoside, each with 4-nitrophenyl-O-β-D-glucopyranoside), 0.1 M phosphate buffer, 37° C., presence and absence of fresh skin wash; conditions: for alcohol release (in words): 37° C.
# Description: In this example, phenyl-O-β-D-3′-ketoglucopyranoside, methyl-O-α-D-3′-ketoglucopyranoside, phenyl-O-β-D-glucopyranoside, methyl-O-α-D-glucopyranoside and 4-nitrophenyl-O-β-D-glucopyranoside were used as model compounds to determine the rate of release of their respective alcohol rests under different conditions.
# The competitive rate of release of methanol or phenol and 4-nitrophenol from a 1:1 stoichiometric mixture of (2R,5S,6S)-3,5-dihydroxy-2-(hydroxymethyl)-6-phenoxytetrahydro-4H-pyran-4-one (phenyl-O-β-D-3′-ketoglucopyranoside) or (2R,3R,5S,6S)-3,5-dihydroxy-2-(hydroxymethyl)-6-methoxytetrahydro-4H-pyran-4-one (methyl-O-α-D-3′ketoglucopyranoside) and their respective 0-glucopyranosides against (2R,3S,4S,5R,6S)-2-(hydroxymethyl)-6-(4-nitrophenoxy)tetrahydro-2H-pyran-3,4,5-triol (4-nitrophenyl-O-β-D-glucopyranoside) in 0.1 M deuterated phosphate buffer solutions at pH 5.7 and 7.0 containing 10% D6-DMSO at room temperature in the presence and absence of fresh skin washing solution was determined.
# 1 M Stock solutions of sodium dihydrogen phosphate and disodium hydrogen phosphate were prepared in deuterated water (D2O).
# 4-Nitrophenyl-O-β-D-glucopyranoside (50 mg) was dissolved in D6-DMSO (1 mL) and 0.2 mL of the resultant solution added to each of 10 mg of methyl-O-α-D-3′-ketoglucopyranoside, methyl-O-α-D-glucopyranoside, phenyl-O-β-D-3′-ketoglucopyranoside and phenyl-O-β-D-glucopyranoside to give substrate stock solutions A, B, C and D respectively.
# In a typical experiment, a stock solution of fresh skin wash suspension was prepared by swabbing a 25 cm^2 area of cheek skin of a human volunteer by robustly rubbing the area with a cotton wool gauze (5×5 cm^2) soaked in D2O (12.5 mL) for 1 minute and then resuspending the gauze in the D2O solution, rapidly shaking and removing the gauze after squeezing out as much liquid as possible with a spatula.
# 1 M Stock solutions of phosphate buffer, pH 5.7 and 7.0 were prepared by appropriately mixing 1 M stock phosphate salts solutions to the correct pH as determined using a calibrated pH meter.
# Half of each buffer stock solution was diluted ten times with D2O and the other with the above skin washing stock solution to give a 0.1 M phosphate buffer in D2O with a final pH of 5.7, 0.1 M phosphate buffer in D2O with a final pH of 7.0, a 0.1 M phosphate buffer in skin wash solution with a final pH of 5.7 and a 0.1 M phosphate buffer in skin wash solution with a final pH of 7.0.
# To sixteen parallel reaction vials, was added 0.45 mL of low or high pH 0.1M phosphate buffer in D2O or 0.45 mL of low or high pH 0.1M phosphate buffer in skin wash solution followed by 0.05 mL of one of the glycoside substrate solutions in D6-DMSO and the mixtures incubated by shaking at 37° C. After times indicated in the table below, the mixtures where analysed by ^1H-NMR with 128 scans using a 400 MHz instrument and the colour observed visually, with the results shown in Table XVII: […]
# [2] = Description: alcohol release from model compounds (III), (IV) and compound (V) in buffer, water and skin washings; conditions: for phenol release (in words): after 60 h
# [3] = Example 21: release of methanol from substrate A (methyl-O-α-D-3′-ketoglucopyranoside) vs substrate B (methyl-O-α-D-glucopyranoside), 0.1 M phosphate buffer or water, room temperature then 37° C.
# Description: In this example, methyl-O-α-D-3′-ketoglucopyranoside and methyl-O-α-D-glucopyranoside were used as model compounds to determine the rate of release of an aliphatic alcohol (methanol) under different conditions.
# 1 M Stock solutions of sodium dihydrogen phosphate and disodium hydrogen phosphate were prepared in deuterated water (D2O). Stock solutions of 15 mg of methyl-O-α-D-3′-ketoglucopyranoside (substrate A) and methyl-O-α-D-glucopyranoside (substrate B) were each prepared by dissolving in 0.3 mL of D6-DMSO.
# Solutions of pH 4.5, 5.8 and 7.4 were prepared by dilution of the appropriate individual or mixture of stock phosphate salt solutions to 0.1 M using a calibrated pH meter.
# To eight parallel reaction vials was added 0.05 mL of one of the glycoside substrate solutions in D6-DMSO, 0.5 mL of the appropriate deuterated buffer solution or 0.5 mL of water were indicated in the table below and the mixtures analysed by ^1H-NMR with 128 scans using a 400 MHz instrument to give an initial time reading.
# The mixtures were then analysed in the same way after allowing to stand at room temperature for a further 22 h.
# The mixtures were then incubated by shaking at 37° C. for a further 44 h and analysed in the same way.
# [4] = Example 13: release of 4-nitrophenol from substrate A (4-nitrophenyl-O-β-D-3′-ketoglucopyranoside) vs substrate B (4-nitrophenyl-O-β-D-glucopyranoside), 0.1 M deuterated phosphate buffer or water, 10% D6-DMSO, room temperature; conditions: varying solution pH; room temperature; 0.5 mL of aqueous solution
# Description: In this example, 4-nitrophenyl-O-β-D-3′-ketoglucopyranoside and 4-nitrophenyl-O-beta-D-glucopyranoside were used as model compounds to determine the rate of release of an aromatic alcohol (4-nitrophenol) under different conditions.
# Rate of release of 4-nitrophenol from (2R,3R,5S,6S)-3,5-dihydroxy-2-(hydroxymethyl)-6-(4-nitrophenoxy)tetrahydro-4H-pyran-4-one (4-nitrophenyl-O-β-D-3′-ketoglucopyranoside) was determined in comparison to (2R,3S,4S,5R,6S)-2-(hydroxymethyl)-6-(4-nitrophenoxy)tetrahydro-2H-pyran-3,4,5-triol (para-nitrophenyl-O-β-D-glucopyranoside) in 0.1 M deuterated phosphate buffer solutions of differing pH containing 10% D6-DMSO or in water containing 10% D6-DMSO at room temperature.
# 1 M Stock solutions of sodium dihydrogen phosphate and disodium hydrogen phosphate were prepared in deuterated water (D2O). Stock solutions of 25 mg of 4-nitrophenyl-O-β-D-3′-ketoglucopyranoside (substrate A), 25 mg of 4-nitrophenyl-O-β-D-glucopyranoside (substrate B) in 0.5 mL of D6-DMSO were each prepared and a stock solution of 11 mg of 4-nitrophenol in the same volume of D6-DMSO for visual comparison.
# Solutions of pH 4.5, 5.8, 7.4 and 9.5 were prepared by dilution of the appropriate individual or mixture of stock phosphate salt solutions to 0.1 M using a calibrated pH meter.
# To ten parallel reaction vials was added 0.05 mL of one of the glycoside substrate stock solutions in D6-DMSO, 0.5 mL of the appropriate deuterated buffer solution or 0.5 mL of water were indicated in Table I below. The reaction vials were allowed to stand at room temperature and the colour of the solutions recorded by visual observation relative to the colour of authentic 4-nitrophenol solutions diluted in the same way, as shown in Table I:
# After approximately 26 h, reactions 2 to 5 were all analysed by ^1H-NM R using 128 scans on a 400 MHz instrument.
# [5] = pH 5.7, presence and absence of skin washing
compound,measurement,setting,value
OC[C@H]1O[C@@H](Oc2ccccc2)[C@H](O)[C@@H](O)[C@@H]1O [phenyl-O-β-D-glucopyranoside],stability (in words),[1]; pH 5.7,stable under all conditions tested
"O=C1[C@@H](O)[C@H](Oc2ccccc2)O[C@H](CO)[C@H]1O [phenyl-O-β-D-3′-ketoglucopyranoside, (2R,5S,6S)-3,5-dihydroxy-2-(hydroxymethyl)-6-phenoxytetrahydro-4H-pyran-4-one]",alcohol release (in words),[1]; [5],reacts slower than at pH 7 and to the same extent in the presence and absence of skin washing
same,phenol release (in words),[2]; buffer alone,a small quantity of conjugate remained
same,phenol release (in words),[2]; in the presence of skin washing,complete release of phenol
"CO[C@H]1O[C@H](CO)[C@@H](O)C(=O)[C@H]1O [methyl-O-α-D-3′-ketoglucopyranoside, (2R,3R,5S,6S)-3,5-dihydroxy-2-(hydroxymethyl)-6-methoxytetrahydro-4H-pyran-4-one]",stability / methanol release (in words),"[3]; 37° C., pH range tested and water","stable at pH 4.5 and 5.8, but very slowly generates methanol at pH 7.4"
same,alcohol release (in words),[1]; [5],no reaction is observed
same,methanol release (in words),"[2]; 0.1M sodium phosphate buffer in D2O, pH 7.0, 37° C., after 36 h",slowly liberates methanol
same,stability (in words),"[2]; deionised water, acidic pH",remained stable in deionised water and relatively stable at acidic pH
same,methanol release in the presence of skin washings (in words),"[2]; same temperature and pH (37° C., pH 7.0)",significantly more methanol than had been observed in buffer alone
CO[C@H]1O[C@H](CO)[C@@H](O)[C@H](O)[C@H]1O [methyl-O-α-D-glucopyranoside],stability / methanol release (in words),[3],remains stable over the pH range tested and in water
same,stability (in words),"[1]; all conditions tested (pH 5.7 and 7.0, with and without skin washing, 37° C.)",stable under all conditions tested
"O=[N+]([O-])c1ccc(O[C@@H]2O[C@H](CO)[C@@H](O)[C@H](O)[C@H]2O)cc1 [4-nitrophenyl-O-β-D-glucopyranoside, (2R,3S,4S,5R,6S)-2-(hydroxymethyl)-6-(4-nitrophenoxy)tetrahydro-2H-pyran-3,4,5-triol]",4-nitrophenol release (in words),[4],releases virtually no 4-nitrophenol
same,alcohol release (in words),"[1]; pH 7, presence and absence of skin washings","release some 4-nitrophenol visually at pH 7 and typically to a greater extent in the presence of skin washings, but to such a low extent that no change was observed by NMR"
